Test results from patent US9067894B1, “Compound, composition, and method of activating GIRK potassium channel and use of same for treating conditions of interest” (Vanderbilt University, priority 2013, dated 2015).
“And” between values parts separate entries of the source, which are not always exact repeats. Equal entries are not always repeated.

Columns and labels:
[1] = target: T1, GIRK1/2 (Homo sapiens, UniProt P48051+P48549); test: Thallium flux, pertussis toxin-treated cells co-expressing mGlu8 and GIRK1/2; format: cell-based; design: host or cells: HEK-293; settings: 600 ng/ml pertussis toxin; VU0456810 10 μM, glutamate 100 μM
T1 sequence (P48549 1-501): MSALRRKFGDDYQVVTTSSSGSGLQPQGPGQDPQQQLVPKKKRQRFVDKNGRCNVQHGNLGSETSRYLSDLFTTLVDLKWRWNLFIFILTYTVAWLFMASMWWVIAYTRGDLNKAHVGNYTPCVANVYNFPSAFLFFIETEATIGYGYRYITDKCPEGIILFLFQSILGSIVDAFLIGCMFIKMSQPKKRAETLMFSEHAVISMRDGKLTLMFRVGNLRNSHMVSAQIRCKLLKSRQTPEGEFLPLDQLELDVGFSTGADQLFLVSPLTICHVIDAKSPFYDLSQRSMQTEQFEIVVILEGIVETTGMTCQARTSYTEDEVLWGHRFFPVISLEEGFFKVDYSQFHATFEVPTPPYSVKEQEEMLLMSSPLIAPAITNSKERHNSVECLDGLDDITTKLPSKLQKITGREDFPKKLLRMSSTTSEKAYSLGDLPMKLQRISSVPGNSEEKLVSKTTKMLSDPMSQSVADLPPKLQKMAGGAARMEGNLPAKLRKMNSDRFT
T1 sequence (P48051 1-423): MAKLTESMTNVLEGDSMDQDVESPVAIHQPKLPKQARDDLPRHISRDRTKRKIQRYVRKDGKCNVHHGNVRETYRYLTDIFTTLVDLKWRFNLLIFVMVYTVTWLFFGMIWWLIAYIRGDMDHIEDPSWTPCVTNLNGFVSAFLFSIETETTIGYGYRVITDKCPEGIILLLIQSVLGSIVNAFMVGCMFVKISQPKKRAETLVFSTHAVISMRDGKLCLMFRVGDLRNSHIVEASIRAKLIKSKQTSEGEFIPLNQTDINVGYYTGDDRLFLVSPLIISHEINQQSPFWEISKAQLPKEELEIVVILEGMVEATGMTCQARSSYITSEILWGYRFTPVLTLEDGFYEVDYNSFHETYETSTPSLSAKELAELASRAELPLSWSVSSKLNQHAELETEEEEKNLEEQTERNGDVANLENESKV
Source text: Cell Line Construction and Cell Culture. HEK-293 cells co-expressing human GIRK1/2 and rat mGlu8 were generated as previously described (Niswender et al., 2008). A HEK-293 cell line (ATCC, Manassas, Va.) expressing human GIRK1 and human GIRK2 was constructed by transfecting HEK-293 cells with GIRK1 and GIRK2 (Origene, Rockville, Md.) cloned into the pBudCE4.1 vector (Life Technologies, Carlsbad, Calif.) using FuGene 6 (Promega, Madison, Wis.) transfection reagent. Unless otherwise noted, other ion channel-expressing cells were prepared by transfecting HEK-293 cells with individual or combinations of subunits: GIRK1, pCMV6-A-BSD; GIRK2, pCMV6-A-puro; GIRK3, pCMV6-A-hygro; GIRK4, pCMV6-A-AC; Kv7.4, pIRESneo3. The Kir2.1 and hERG-expressing cell lines were made by transfecting T-REx-293 cells (Life Technologies, Carlsbad, Calif.) with Kir2.1 and Kv11.1, respectively, cloned into pcDNA5TO. Monoclonal cell lines were produced by limiting-dilution cloning of antibiotic-resistant cells and functional selection using the thallium flux assay described below. Unless otherwise noted, cells were maintained in Minimal Essential Medium, Alpha Medium (Mediatech, Manassas, Va.) supplemented with 10% fetal bovine serum (Sigma-Aldrich, Saint Louis, Mo.) and GlutaGro (Mediatech, Manassas, Va.), referred to henceforth as cell culture medium. […]

[2] = Pentylenetetrazol (PTZ)-induced seizure model; format: in vivo, mouse; settings: mice, i.p.; VU0456810 60 mg/kg, sodium valproate 150 mg/kg; PTZ 40 mg/kg; 20 minute timeframe
Protocol: After thirty minutes, PTZ was administered intraperitoneally (i.p., 40 mg/kg). Immediately following administration of PTZ, the amount of time elapsed before the first occurrence of tremors, tonic-clonic seizures, convulsion, and death was recorded. All mice were subject to a 20-minute post-[…] cutoff.
(§1) In all cases, experiments were conducted in a blind manner with respect to the experimenters. Data were evaluated in Excel using one-tailed, unpaired Student's t-test, assuming populations with unequal variance.

[3] = Maximal electroshock (MES) model of epilepsy; format: in vivo, mouse; settings: mice, i.p.; VU0456810 60 mg/kg, sodium valproate 150 mg/kg; vs vehicle
Protocol: MES stimulation was applied, 30 minutes after injection, through transauricular (ear-clip) electrodes from an electroshock apparatus, HSE Shock Stimulator Type 221, (Harvard Apparatus, Holliston, Mass.) using the following parameters: 100-mA fixed current, a 50-60-Hz pulse frequency, a 0.6-ms pulse width and a 0.3-s stimulus duration. Animals were restrained by hand when applying the electrodes and released at the moment of stimulation to permit observation of the seizure throughout its entire course. Upon completion of the electrical stimulus, the amount of time until death was recorded. […] In this modified MES test, the electrical stimulus that was applied was sufficient to induce seizures and death from maximal seizure in 100% of the control mice.
as §1

[4] = test system: GIRK; settings: read-out: potency / reported EC50 as GIRK activator; cited from earlier work

## N[C@@H](CCC(=O)O)C(=O)O [glutamate, reference compound]
[1]
  effect of pertussis toxin treatment on evoked thallium flux: abolishing

## CCCC(CCC)C(=O)[O-].[Na+] [sodium valproate, reference compound]
[2]
  animals experiencing convulsions from PTZ treatment: significant decrease
  animals surviving PTZ treatment: significant increase
[3]
  latency of seizure onset: highly significant delays in seizure onset

## C[C@@H]1O[C@@H](O[C@H]2[C@H](Oc3cc(O)c4c(c3)O[C@H](c3ccc(O)cc3)CC4=O)O[C@H](CO)[C@@H](O)[C@@H]2O)[C@H](O)[C@H](O)[C@H]1O [naringin]
[4]
  EC50: ~100 µM and > 100 µM
